Some test systems named below: SNB-75; 786-0; HCC 2998; NCI-H23; RXF 393; OVCAR-3; LOX IMVI; HOP-62; SK-OV-3; K562; Malme-3M; HL-60; NCI-H460; Hs-578T; RPMI-8226; MCF7; UACC-62; HCT-116; DU-145; MDA-MB-435.
Holding throughout (assay): DTP human tumour cell line panel, 48 h

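96-well plates; 48 h exposure; 5 concentrations. Endpoints by linear interpolation between flanking doses. Not reached: highest tested concentration assigned. At the GI50, growth is halved.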 Calls of active or inactive are those of the source. Rule as the data show it: active = GI50 up to about 1.1 µM and inactive = higher.

For the compound `CC(=O)NCCC1CN(C(=O)/C=C/I)c2ccccc21` (stereo not given), the GI50 (in general, the concentration at which growth is held to half of that of the control) in the assay on SNB-75 is 16.8 µM (inactive); in the assay on 786-0 it was 1.32 µM (inactive); in the assay on HCC 2998 it was 15.9 µM (inactive); with NCI-H23, 11.9 µM (inactive); in the assay with RXF 393, 5.21 µM (inactive); in the assay on OVCAR-3 it was 5.86 µM (inactive). The GI50 is 1.56 µM (inactive) in the assay on LOX IMVI; 14.2 µM (inactive) in the assay on HOP-62; 14.7 µM (inactive) in the assay on SK-OV-3; 3.73 µM (inactive) in the assay with K562; 13 µM (inactive) in the assay on Malme-3M; 3.17 µM (inactive) in the assay with HL-60. Besides, the GI50 is 4.62 µM (inactive) with NCI-H460; 9.66 µM (inactive) in the assay with Hs-578T; 0.292 µM (active) in the assay with RPMI-8226; 0.308 µM (active) in the assay on MCF7; 5.07 µM (inactive) with UACC-62; 4.01 µM (inactive) in the assay on HCT-116. The GI50 in the assay on DU-145 was 15.7 µM (inactive); in the assay with MDA-MB-435, 5.93 µM (inactive).
For the compound `COc1cccc(Nc2nc(N)nc(N)c2N=O)c1`, the GI50 is 10.8 µM (inactive) in the assay on SNB-75; 19 µM (inactive) with 786-0; 17.4 µM (inactive) with HCC 2998; 15.3 µM (inactive) in the assay with NCI-H23; 28.6 µM (inactive) in the assay with RXF 393; 15.6 µM (inactive) with OVCAR-3. Moreover, the GI50 is 15.1 µM (inactive) in the assay with LOX IMVI; 28.8 µM (inactive) in the assay on HOP-62; 29.2 µM (inactive) in the assay with SK-OV-3; 31.3 µM (inactive) in the assay with K562; 29.2 µM (inactive) in the assay on Malme-3M; 19.1 µM (inactive) with HL-60. Further, the GI50 in the assay on NCI-H460 was 13.6 µM (inactive); in the assay on Hs-578T, 14.5 µM (inactive); in the assay on RPMI-8226, 16.9 µM (inactive); with MCF7, 3.8 µM (inactive); in the assay with UACC-62, 15.5 µM (inactive); in the assay on HCT-116, 18.4 µM (inactive). Further, the GI50 is 13.2 µM (inactive) with DU-145 and 16.9 µM (inactive) in the assay on MDA-MB-435.
On to `N#CCOc1ccc(/C=C/C(=O)c2ccc(Cl)cc2)cc1`, for which the GI50 is 19.5 µM (inactive) with SNB-75; 22.6 µM (inactive) with 786-0; 31.7 µM (inactive) in the assay with HCC 2998; 24.8 µM (inactive) in the assay with NCI-H23; 17.5 µM (inactive) with RXF 393; 31.8 µM (inactive) with OVCAR-3. Moreover, the GI50 is 15.6 µM (inactive) with LOX IMVI; 25.2 µM (inactive) in the assay with HOP-62; 18.4 µM (inactive) with SK-OV-3; 26 µM (inactive) in the assay on K562; 28 µM (inactive) in the assay on Malme-3M; 28.5 µM (inactive) in the assay on HL-60. The GI50 was 27.2 µM (inactive) in the assay with NCI-H460; 18.2 µM (inactive) in the assay with Hs-578T; 23.1 µM (inactive) with RPMI-8226; 11.4 µM (inactive) with MCF7; 19 µM (inactive) with UACC-62; 6.65 µM (inactive) with HCT-116. Further, the GI50 in the assay on DU-145 was 66.4 µM (inactive); with MDA-MB-435, 28.8 µM (inactive).

These data come from ChEMBL document CHEMBL1201862, “PubChem BioAssay data set” (2004).
